Data set [1] relates to Parkinson's disease progression. Conditions: ClinicalTrials.gov ID NCT02906020; cited from earlier work. The text has this:
In the context of diseases, where lysosomal GCase activity is reduced, activation of either impaired mutated GCase or residual wt GCase could provide a therapeutic strategy for restoring lysosomal function. Both in GBA1‐associated and in GBA1‐wt PD models and patients, ongoing preclinical and clinical studies are already exploring this possibility, predominantly at the stage of screening for GCase activators for the treatment of Gaucher and Parkinson's disease.^[ [57], [58] ^] Despite the expected increase of the prevalence of PD and worldwide disease burden due to increasing life expectancy a ...

Data set [2] relates to lysosomal GCase in primary human fibroblasts (CTRL‐2, PD‐1, PD‐2). The data set can be described thus: Live cell measurement of lysosomal GCase activity (PFB‐Gluc). Particulars: 10 µM peptide, 48 h, area between curves (total minus bafilomycin), n = 3. In kind it is cell-based. How it is done: GCase activity inside the lysosomes of living cells was measured via the fluorescent probe PFB‐Gluc (ThermoFisher Scientific Inc., Waltham, MA, United States, #P11947). The experimental procedure was adapted from Cuddy and Mazzulli.^[ [72] ^] Primary human fibroblasts were seeded at 20 000 cells per well on a black 96‐well cell culture dish with transparent bottom (Corning, Corning, NY, United States, #3603). For each replicate, two wells were seeded. […] The next day, the medium was changed again to 50 µL of fresh media containing treatment. On day 3, one of the two‐seeded wells for each replicate (control well) was treated with 200 nM bafilomycin 1A (Baf, Santa Cruz Biotechnology, Dallas, TX, United States, #sc‐201550A) for 1 h to inhibit lysosomal enzyme activity. […] Immediately after, the first fluorescence measurement was taken (PFB‐Gluc: λ ex: 485 nm; λ em: 538 nm; cutoff: 495 nm). The cells were kept at 37 °C and measured every 30 min for a total of 180 min. […]
For data evaluation, PFB‐Gluc measurements over time were baseline‐corrected and then normalized per well to the respective CellTag 700 signal (cell volume). Replicates were arranged in an XY diagram with their respective Baf control and the AUC for both curves was calculated. Lysosomal activity was then calculated by subtracting the baf control (non‐lysosomal activity) AUC from the non‐inhibited AUC (total activity).

The subject of data set [3] is recombinant GCase (Cerezyme/imiglucerase). As to the kind of experiment: 4MU GCase activity assay with recombinant enzyme Cerezyme/imiglucerase. In kind it is biochemical. Conditions: varying peptide concentrations, 4MU substrate, detergent‐free, n = 3. As to the method: Activity of GCase‐containing samples (recombinant protein, cell lysate, LE fractions, conditioned culture medium) was measured using the synthetic substrate 4‐methylumbelliferyl‐β‐D‐glucopyranoside (4MU, Merck Millipore, Billerica, MA, United States, #M3633). […] of the sample (cell supernatant, SEC fractions) or 2.5 µg of total protein from whole‐cell lysates were added to the well of a black 96‐well Maxisorp plate (ThermoFisher Scientific Inc., Waltham, MA, United States, #437 111). The reaction volume was then increased to 100 µL with GCase activity buffer (see paragraph “Cell Lysis”) and a final concentration of 1 µM of 4MU substrate was added. After incubation at 37 °C for 30 min, the reaction was stopped by adding 100 µL of stop solution (0.1 M glycine, pH 10.4). GCase activity was quantified via fluorescence of released 4‐methylumbelliferone (endpoint measurement) using an Infinite 200 Pro (TECAN, Männedorf, Switzerland), SpectraMax Gemini (Molecular Devices, San José, CA, United States) or ClarioStar (BMG LABTECH, Ortenberg, Germany) multiplate reader (λ ex: 365 nm; λ em: 445 nm).
For all activity assays in the presence of recombinant LIMP‐2 or synthetic peptides, sodium taurocholate, and Triton X‐100 were omitted from the reaction to not hinder protein–protein interaction. […]

For data set [4], the system named is primary human fibroblasts (CTRL‐2, PD‐1, PD‐2). The data set can be described thus: Toxicity assessment via LDH release. In kind it is cell-based. As to the method:
Primary human fibroblasts were seeded on a 96‐well plate at 3 × 10^4 cells per well. The next day, the medium was replaced with a 50 µL fresh fibroblast medium containing various concentrations of L2H5‐wt peptide (0–20 µM). The cells were incubated for 72 h before the conditioned medium was harvested. LDH release to the cell medium as a marker for cell death was measured using a CyQuant LDH Cytotoxicity Assay Kit (Invitrogen, Waltham, MA, United States #C20300) following the manufacturer's instructions. For each condition, three wells were seeded and measured as triplicates. A480 and […] absorption values were measured using a ClarioStar (BMG LABTECH, Ortenberg, Germany) multiplate reader. LDH enzyme activity was determined by calculating the difference between A480 and A690 values for each well.
For orientation: LDH in the medium is a marker of cell lysis.

The subject of another data set is HEK 293T cells. Particulars: 5 µM L2H5‐wt, LC‐MS/MS.
Data set [5] can be described thus: Precipitation / solubility of peptide in assay buffers. Conditions: lysosomal pH 5.0, higher concentrations. In kind it is physicochemical. As to the method:
Activity of GCase‐containing samples (recombinant protein, cell lysate, LE fractions, conditioned culture medium) was measured using the synthetic substrate 4‐methylumbelliferyl‐β‐D‐glucopyranoside (4MU, Merck Millipore, Billerica, MA, United States, #M3633). […] of the sample (cell supernatant, SEC fractions) or 2.5 µg of total protein from whole‐cell lysates were added to the well of a black 96‐well Maxisorp plate (ThermoFisher Scientific Inc., Waltham, MA, United States, #437 111). The reaction volume was then increased to 100 µL with GCase activity buffer (see paragraph “Cell Lysis”) and a final concentration of 1 µM of 4MU substrate was added. […] GCase activity was quantified via fluorescence of released 4‐methylumbelliferone (endpoint measurement) using an Infinite 200 Pro (TECAN, Männedorf, Switzerland), SpectraMax Gemini (Molecular Devices, San José, CA, United States) or ClarioStar (BMG LABTECH, Ortenberg, Germany) multiplate reader (λ ex: 365 nm; λ em: 445 nm). […]
For interaction of GCase with L2H5‐wt peptide, recombinant GCase was produced in‐house (see paragraph “Expression and Purification of His‐tagged GCase‐wt Protein”) and labeled as described for Cerezyme. […] For each replicate, a twofold dilution series of 16 samples was measured, starting at 125 µM ligand (L2H5‐wt) concentration. […]

A further data set is described as follows: SEC of FRed-L2H5-wt. In kind it is physicochemical. Conditions: Superdex 200 Increase 10/300 GL, PBS, 0.5 mL min^−1, UV280 and UV580. How it is done: Two hundred microliters of protein solution were injected using a 500 μL loop. Fractions of 1000 μL were collected. Based on the UV280 and UV580 elution profiles, fraction 15 containing monomeric […] concentrated using a 10K Amicon ultra 0.5 filter unit.

“Also recorded” adds a separate entry of the source. No end group written: not given here.

Procedure for HEK 293T cells: HEK 293T cells were seeded on 10 cm dishes. When confluence was reached, the cells were treated with 5 µM of L2H5‐wt for 2 and 24 h before harvesting. LE fractions were generated as described before (see “Expression and enrichment of lysosomes from HEK 293T cells”). Proteome analysis was performed as described in the following:
The LE fractions were processed using the single‐pot, solid‐phase‐enhanced sample‐preparation (SP3) approach.^[ [74] ^] The proteins were then digested using trypsin overnight at 37 °C. The resultant peptide solution was purified by solid phase extraction in C18 StageTips.^[ [75] ^]
Samples were analyzed using an Orbitrap Exploris 480 mass spectrometer (Thermo Fisher Scientific, Waltham, MA, United States) coupled to an EASY‐nLC 1200 UHPLC system (Thermo Fisher Scientific, Waltham, MA, United States). Peptides were separated in an in‐house packed 60‐cm analytical column (inner diameter: 75 µm; ReproSil‐Pur 120 C18‐AQ 1.9‐µm silica particles, Dr. Maisch, Ammerbuch, Germany) by online reversed‐phase chromatography through a 120‐min gradient of 2.4–32% v/v acetonitrile with 0.1% v/v formic acid at a nanoflow rate of 250 nl min^−1. The eluted peptides were sprayed directly by electrospray ionization into the mass spectrometer. […]

Regarding `CC(C)(NC(=O)O[C@@H]1CN2CCC1CC2)c1csc(-c2ccc(F)cc2)n1` [venglustat], in data set [1], the clinical trial outcome is reported as “changing GluCer levels alone may not be sufficient to positively affect disease progression”.
Consider “KFERQGSGSQVHFLREDDEAMDKAYQSGSGYGRKKRRQRRR [L2H5‐3xD]”, for which the “lysosomal GCase activity” value in data set [2] is on record as “did not affect lysosomal GCase activity; also recorded: did not elevate lysosomal GCase activity”. The “effect on GCase activity, concentration dependence” value in data set [3] is on record as “no effect on GCase activity”.
With “KFERQGSGSQVHFLREIIEAMLKAYQSGSGYGRKKRRQRRR-NH2 [L2H5‐wt]”, in data set [4] (0–20 µM, 72 h, CTRL‐2, PD‐1, PD‐2 fibroblasts, n = 3), the “concentration tolerated (no increase in cell death, LDH release)” value is given as “up to 10 µM”. For the same molecule, the “LDH release at 20 µM” value in data set [4] (20 µM, 72 h, CTRL‐2, PD‐1, PD‐2 fibroblasts, n = 3) was “strong increase in LDH release; also recorded: LDH activity in the medium was significantly increased”. Further, the “concentration at which cell toxicity starts” value in data set [4] (primary fibroblasts) is not below 20 µM. Further, the “L2H5‐wt‐specific tryptic peptides detected in LE fractions, 2 h” value in the data set on HEK 293T cells was “peptides 2 and 3; also recorded: could be detected by mass spectrometry 2 h”. Also, the “solubility in MST measurement” value in data set [5] was “insufficient solubility of the peptide at higher concentrations”.
On to “QVHFLREIIEAMLKAYQ [FRed‐L2H5‐wt, L2H5‐wt peptide fused to FusionRed, expressed in E. coli]”, for which, in the data set “SEC of FRed-L2H5-wt”, the “aggregation in SEC profile” value is given as “The earlier peak likely consists of aggregated protein”.

The record behind these values is PMC11220700, “Activation and Purification of ß‐Glucocerebrosidase by Exploiting its Transporter LIMP‐2 – Implications for Novel Treatment Strategies in Gaucher's and Parkinson's Disease” (Advanced Science, 2024).
